Among the data in ChEMBL document CHEMBL1201862, “PubChem BioAssay data set” (2004) are IC50 and EC50 values, retold here.

For assay [1], the target named is 26S proteasome non-ATPase regulatory subunit 14 (Homo sapiens, UniProt O00487). Briefly: inhibition of proteasome subunit RPN11 – biochemical, fluorescence polarization, uHTS hits, confirmation (AID 602368). In kind it is functional. In general terms: In fluorescence polarisation assays a small probe gives low polarisation when free and higher when bound to something large.
26S proteasome non-ATPase regulatory subunit 14, sequence (O00487 whole entry): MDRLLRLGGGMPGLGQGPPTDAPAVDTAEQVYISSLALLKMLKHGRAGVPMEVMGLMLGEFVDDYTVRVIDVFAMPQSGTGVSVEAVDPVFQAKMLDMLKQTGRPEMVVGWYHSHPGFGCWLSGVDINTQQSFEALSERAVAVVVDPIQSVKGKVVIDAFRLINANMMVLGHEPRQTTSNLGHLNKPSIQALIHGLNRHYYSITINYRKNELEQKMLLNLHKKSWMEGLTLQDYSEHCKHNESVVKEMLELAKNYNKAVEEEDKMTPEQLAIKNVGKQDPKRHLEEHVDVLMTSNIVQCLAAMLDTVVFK

Assay [2] concerns the target 72 kDa type IV collagenase (Homo sapiens, UniProt P08253). Briefly: Dose Response validation of uHTS RPN11 inhibitor hits using a MMP-2 Fluorescence assay. In kind it is functional.
Assay [3] deals with Prothrombin (Bos taurus, UniProt P00735). The assay can be described thus: thrombin inhibition, dose response, biochemical, fluorescence polarization, uHTS hits (AID 602369). In kind it is functional.
The target in assay [4] is T1, Zinc finger protein mex-5 (Caenorhabditis elegans, UniProt Q9XUB2).
T1 sequence (Q9XUB2 whole entry): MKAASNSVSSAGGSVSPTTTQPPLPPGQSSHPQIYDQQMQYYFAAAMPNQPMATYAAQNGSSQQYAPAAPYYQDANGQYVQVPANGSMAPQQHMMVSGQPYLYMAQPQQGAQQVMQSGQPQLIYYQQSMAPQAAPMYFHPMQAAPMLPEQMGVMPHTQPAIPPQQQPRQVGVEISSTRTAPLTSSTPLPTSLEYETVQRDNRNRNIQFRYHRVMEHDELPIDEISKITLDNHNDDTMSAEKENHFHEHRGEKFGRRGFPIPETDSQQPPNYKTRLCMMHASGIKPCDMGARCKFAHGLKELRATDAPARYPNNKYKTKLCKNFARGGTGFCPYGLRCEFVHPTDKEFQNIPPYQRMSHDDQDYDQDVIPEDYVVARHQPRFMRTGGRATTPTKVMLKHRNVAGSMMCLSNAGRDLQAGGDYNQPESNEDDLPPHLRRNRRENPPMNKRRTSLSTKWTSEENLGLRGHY
The assay can be described thus: MEX-5/TCR-2 RNA interaction inhibitors, dose response, biochemical, C. elegans, fluorescence polarization (AID 1960).

Assay [5] deals with T2, RNA-binding protein pos-1 (Caenorhabditis elegans, UniProt G5EF15).
T2 sequence (G5EF15 whole entry): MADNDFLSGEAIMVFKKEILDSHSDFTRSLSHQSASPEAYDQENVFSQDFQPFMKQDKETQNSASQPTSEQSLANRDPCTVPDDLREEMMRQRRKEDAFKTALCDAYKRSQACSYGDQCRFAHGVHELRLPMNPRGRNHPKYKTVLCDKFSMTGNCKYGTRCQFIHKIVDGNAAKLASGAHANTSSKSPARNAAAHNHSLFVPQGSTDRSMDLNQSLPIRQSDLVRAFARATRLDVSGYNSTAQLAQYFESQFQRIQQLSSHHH
The assay can be described thus: inhibitors of POS-1/mex-3 RNA binding, dose response, biochemical, fluorescence polarization (AID 1964).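 Also: purified POS-1 fused to maltose binding protein made in E. coli; potency of compounds blocking POS-1 binding to fluorescent RNA.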

The nature of assay [6]: cytotoxicity in HEK-293T cells, dose response, cytotoxicity control for BCR NF-kB inhibitor project, luminescence, B-cell screen hits (AID 489021).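 Also: HEK-293T cells carrying an NF-kB luciferase reporter; cells exposed to compound for about 14 hours before viability readout.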 It counts as functional, cell-based.
For assay [7], the target named is T3, Sentrin-specific protease 7 (Homo sapiens, UniProt Q9BQF6).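 Also: Luminescence-based dose-response confirmation of ultra-high-throughput screening hits, measuring inhibition of SENP7.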
T3 sequence (Q9BQF6 whole entry): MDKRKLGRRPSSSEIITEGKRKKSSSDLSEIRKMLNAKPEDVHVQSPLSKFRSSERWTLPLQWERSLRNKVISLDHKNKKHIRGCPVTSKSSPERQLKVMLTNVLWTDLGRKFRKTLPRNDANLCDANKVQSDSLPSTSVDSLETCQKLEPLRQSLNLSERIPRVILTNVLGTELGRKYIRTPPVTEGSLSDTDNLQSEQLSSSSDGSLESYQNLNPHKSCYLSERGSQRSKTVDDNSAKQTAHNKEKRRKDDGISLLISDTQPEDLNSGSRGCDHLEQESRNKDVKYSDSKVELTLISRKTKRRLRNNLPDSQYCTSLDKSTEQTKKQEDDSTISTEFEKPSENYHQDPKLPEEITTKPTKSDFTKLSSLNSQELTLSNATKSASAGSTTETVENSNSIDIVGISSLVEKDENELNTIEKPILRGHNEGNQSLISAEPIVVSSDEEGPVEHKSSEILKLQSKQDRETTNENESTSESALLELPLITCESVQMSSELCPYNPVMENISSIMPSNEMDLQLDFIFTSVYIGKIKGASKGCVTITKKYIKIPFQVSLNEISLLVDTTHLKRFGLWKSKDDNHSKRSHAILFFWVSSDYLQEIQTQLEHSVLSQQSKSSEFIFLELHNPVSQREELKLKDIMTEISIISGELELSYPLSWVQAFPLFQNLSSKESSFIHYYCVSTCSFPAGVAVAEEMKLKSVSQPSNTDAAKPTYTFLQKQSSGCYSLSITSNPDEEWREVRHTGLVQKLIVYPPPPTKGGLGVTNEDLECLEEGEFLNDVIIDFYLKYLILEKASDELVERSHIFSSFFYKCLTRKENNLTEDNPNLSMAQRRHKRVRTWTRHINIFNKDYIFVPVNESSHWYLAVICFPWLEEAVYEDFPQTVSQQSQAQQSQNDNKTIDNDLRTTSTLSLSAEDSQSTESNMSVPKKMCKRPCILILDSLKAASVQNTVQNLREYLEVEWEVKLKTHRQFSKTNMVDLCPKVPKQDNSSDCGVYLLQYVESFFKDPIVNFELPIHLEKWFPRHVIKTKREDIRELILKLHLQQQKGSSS
It counts as functional.

In assay [8] the target is T4, Sentrin-specific protease 6 (Homo sapiens, UniProt Q9GZR1).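 Also: Luminescence-based dose-response confirmatory assay of SENP6 inhibition, following up an ultra-high-throughput screen.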
T4 sequence (Q9GZR1 whole entry): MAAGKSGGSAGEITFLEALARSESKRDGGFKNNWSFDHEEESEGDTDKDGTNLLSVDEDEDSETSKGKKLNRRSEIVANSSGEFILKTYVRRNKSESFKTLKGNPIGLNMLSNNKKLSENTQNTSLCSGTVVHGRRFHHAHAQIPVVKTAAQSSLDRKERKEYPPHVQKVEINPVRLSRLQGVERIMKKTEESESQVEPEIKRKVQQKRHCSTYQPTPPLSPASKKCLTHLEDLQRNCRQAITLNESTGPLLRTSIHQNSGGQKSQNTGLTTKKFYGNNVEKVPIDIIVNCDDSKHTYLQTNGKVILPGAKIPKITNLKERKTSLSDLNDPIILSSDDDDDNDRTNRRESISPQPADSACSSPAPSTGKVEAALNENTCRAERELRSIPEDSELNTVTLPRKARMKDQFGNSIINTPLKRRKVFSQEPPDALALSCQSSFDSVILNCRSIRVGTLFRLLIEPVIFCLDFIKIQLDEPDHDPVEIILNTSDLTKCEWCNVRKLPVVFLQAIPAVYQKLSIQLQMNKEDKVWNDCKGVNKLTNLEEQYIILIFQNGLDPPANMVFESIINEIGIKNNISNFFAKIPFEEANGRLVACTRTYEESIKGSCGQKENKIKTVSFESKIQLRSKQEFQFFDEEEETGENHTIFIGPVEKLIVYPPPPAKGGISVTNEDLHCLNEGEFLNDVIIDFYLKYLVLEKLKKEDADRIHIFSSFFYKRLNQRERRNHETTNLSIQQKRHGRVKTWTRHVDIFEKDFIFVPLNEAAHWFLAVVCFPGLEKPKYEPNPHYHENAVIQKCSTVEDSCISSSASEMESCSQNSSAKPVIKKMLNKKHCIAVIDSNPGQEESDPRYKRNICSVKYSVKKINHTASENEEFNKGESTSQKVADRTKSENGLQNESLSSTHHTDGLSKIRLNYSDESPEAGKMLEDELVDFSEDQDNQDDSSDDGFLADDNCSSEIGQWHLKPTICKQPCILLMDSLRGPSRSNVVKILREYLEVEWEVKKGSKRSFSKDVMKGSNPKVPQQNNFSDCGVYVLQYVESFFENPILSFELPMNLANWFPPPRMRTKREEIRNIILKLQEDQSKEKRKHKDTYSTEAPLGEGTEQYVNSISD
It counts as functional.

In assay [9] the target is T5, Endoribonuclease toxin MazF (Escherichia coli K-12, UniProt P0AE70).
T5 sequence (P0AE70 whole entry): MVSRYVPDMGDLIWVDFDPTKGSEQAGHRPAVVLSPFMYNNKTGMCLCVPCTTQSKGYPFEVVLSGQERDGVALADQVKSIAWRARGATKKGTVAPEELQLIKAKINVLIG
The assay can be described thus: fluorescent RNA oligo signal without MazF, dose response, counter-screen for MazEF activator project, biochemical, fluorescence, single-stranded RNase substrate (AID 588502). In kind it is functional. (In general: Counterscreens check selectivity or assay interference.)

In assay [10] the target is T6, Sentrin-specific protease 8 (Homo sapiens, UniProt Q96LD8).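 Also: luminescence read-out of SENP8 inhibition, dose-response confirmation following an ultra-high-throughput screen.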
T6 sequence (Q96LD8 whole entry): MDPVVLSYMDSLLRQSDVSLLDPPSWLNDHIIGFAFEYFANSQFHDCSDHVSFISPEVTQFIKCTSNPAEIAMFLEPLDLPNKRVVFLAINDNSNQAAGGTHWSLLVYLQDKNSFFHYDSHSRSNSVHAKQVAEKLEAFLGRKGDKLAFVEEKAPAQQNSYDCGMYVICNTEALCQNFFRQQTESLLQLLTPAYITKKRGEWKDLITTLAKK
It counts as functional.

Assay [11] addresses T7, Caspase-3 (Homo sapiens, UniProt P42574).
T7 sequence (P42574 whole entry): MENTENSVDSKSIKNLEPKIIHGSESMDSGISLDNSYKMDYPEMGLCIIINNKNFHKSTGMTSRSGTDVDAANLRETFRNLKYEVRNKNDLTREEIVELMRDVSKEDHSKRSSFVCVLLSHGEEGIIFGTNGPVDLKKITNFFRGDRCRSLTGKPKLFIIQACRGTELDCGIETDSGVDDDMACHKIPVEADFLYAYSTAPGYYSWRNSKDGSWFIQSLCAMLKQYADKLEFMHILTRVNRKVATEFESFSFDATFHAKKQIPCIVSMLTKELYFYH
In kind it is functional.

Assay [12] deals with T5, Endoribonuclease toxin MazF. The assay can be described thus: MazF toxin RNase activators, dose response, biochemical, fluorescence, single-stranded RNA substrate, uHTS hits (AID 588481). In kind it is functional.
The target of assay [13] is T8, Protein skinhead-1 (Caenorhabditis elegans, UniProt P34707).
T8 sequence (P34707 whole entry): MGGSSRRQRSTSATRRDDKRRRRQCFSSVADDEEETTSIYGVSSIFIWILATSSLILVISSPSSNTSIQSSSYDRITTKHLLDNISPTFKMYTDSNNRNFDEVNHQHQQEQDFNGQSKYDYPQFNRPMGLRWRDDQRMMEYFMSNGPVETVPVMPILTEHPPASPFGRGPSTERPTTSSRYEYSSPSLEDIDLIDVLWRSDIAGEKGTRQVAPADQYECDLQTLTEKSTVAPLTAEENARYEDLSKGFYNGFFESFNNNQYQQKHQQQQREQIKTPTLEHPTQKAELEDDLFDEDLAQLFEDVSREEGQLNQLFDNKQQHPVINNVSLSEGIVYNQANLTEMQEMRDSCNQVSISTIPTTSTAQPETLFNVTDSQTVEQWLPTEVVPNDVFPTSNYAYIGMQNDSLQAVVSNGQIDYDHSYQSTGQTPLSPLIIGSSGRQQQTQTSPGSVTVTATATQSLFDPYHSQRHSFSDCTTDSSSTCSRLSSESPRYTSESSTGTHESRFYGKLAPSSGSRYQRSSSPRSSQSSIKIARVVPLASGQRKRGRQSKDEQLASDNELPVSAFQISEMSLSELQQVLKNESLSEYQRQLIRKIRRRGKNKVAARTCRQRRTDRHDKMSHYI
It counts as functional.

Assay [14] deals with T9, Hepatocyte nuclear factor 4-alpha (Homo sapiens, UniProt P41235).
T9 sequence (P41235 whole entry): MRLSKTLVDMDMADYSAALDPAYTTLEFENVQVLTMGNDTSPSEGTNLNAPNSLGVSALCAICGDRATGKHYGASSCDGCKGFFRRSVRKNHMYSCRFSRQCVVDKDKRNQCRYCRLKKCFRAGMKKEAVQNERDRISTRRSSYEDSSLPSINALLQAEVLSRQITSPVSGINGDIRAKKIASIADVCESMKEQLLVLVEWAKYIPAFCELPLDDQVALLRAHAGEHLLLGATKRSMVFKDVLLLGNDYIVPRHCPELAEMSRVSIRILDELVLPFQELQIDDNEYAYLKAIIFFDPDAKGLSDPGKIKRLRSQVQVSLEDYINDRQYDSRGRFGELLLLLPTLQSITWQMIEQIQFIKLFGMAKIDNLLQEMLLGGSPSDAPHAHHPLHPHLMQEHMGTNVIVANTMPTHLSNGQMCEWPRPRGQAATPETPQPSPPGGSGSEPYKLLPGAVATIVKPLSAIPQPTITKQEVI
It counts as functional, cell-based.

For assay [15], the target named is Genome polyprotein (dengue virus type 2, UniProt P29990). Briefly: Dengue-2 NS5 methyltransferase inhibitors, primary screen, biochemical, confirmation dose response (AID 588689). It counts as functional.
Genome polyprotein, sequence (P29990 2492-3391 limits assumed): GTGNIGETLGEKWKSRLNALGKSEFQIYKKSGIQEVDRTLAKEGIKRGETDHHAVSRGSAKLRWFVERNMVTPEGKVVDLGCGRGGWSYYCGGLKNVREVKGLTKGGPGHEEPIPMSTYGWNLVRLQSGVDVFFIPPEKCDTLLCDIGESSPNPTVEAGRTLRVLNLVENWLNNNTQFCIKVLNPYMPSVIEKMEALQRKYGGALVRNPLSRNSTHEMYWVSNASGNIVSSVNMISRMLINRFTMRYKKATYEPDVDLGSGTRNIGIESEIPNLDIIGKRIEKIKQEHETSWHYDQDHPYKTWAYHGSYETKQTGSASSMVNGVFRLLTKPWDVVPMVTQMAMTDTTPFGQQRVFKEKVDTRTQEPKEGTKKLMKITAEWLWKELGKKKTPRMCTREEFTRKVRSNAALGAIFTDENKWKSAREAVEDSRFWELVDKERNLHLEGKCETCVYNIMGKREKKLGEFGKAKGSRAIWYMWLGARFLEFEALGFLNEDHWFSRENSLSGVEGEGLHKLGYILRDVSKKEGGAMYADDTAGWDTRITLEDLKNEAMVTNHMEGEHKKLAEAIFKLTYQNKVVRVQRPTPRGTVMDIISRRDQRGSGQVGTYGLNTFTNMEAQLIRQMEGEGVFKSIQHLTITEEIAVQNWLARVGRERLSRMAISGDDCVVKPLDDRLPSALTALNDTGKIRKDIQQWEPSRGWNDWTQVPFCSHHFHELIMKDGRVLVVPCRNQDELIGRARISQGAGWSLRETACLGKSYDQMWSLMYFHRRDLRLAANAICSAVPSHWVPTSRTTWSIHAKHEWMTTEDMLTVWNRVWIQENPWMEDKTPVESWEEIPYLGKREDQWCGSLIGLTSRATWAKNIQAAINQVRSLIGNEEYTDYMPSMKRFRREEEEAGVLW

Active and inactive are the calls of the source. A value given as a limit tells only on which side of the number the result lay.

72 kDa type IV collagenase, sequence (P08253 whole entry): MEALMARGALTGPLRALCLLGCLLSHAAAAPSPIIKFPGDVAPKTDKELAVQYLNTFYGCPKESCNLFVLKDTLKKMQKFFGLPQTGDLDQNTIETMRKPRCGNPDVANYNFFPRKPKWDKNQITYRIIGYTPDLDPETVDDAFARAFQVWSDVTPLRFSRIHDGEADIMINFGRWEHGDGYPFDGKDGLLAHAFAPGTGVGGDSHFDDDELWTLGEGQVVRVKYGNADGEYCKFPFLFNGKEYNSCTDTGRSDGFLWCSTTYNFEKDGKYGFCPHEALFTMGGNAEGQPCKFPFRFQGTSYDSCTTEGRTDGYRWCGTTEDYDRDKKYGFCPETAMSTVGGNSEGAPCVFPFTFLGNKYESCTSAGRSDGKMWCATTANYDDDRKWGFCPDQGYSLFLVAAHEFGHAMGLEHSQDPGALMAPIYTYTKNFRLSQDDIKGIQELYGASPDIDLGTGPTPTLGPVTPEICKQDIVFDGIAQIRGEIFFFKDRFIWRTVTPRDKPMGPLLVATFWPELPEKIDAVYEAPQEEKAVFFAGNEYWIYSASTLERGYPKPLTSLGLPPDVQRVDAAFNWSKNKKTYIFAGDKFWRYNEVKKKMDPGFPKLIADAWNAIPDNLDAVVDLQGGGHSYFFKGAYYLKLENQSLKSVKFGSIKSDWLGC

The IC50 is the midpoint of a concentration-inhibition curve. For the molecule `COc1cc(/C=C2/SC(=S)N(CC(=O)Nc3nc4ccccc4s3)C2=O)cc(OC)c1OC`, the IC50 is 20.2 µM (active) in [1], > 100 µM (inactive) in [2] and 23.5 µM (active) in assay [3].

For orientation: EC50 means the concentration needed to bring the measured effect to its halfway point. In the case of `CCOc1ccc(N2C(=O)/C(=C/Nc3ccnn3Cc3ccncc3)c3ccccc3C2=O)cc1`, the IC50 was 23.9 µM (active) in [1], > 100 µM (inactive) in assay [2] and 24.6 µM (active) in assay [3]. Moreover, the EC50 in assay [4] and in [5] was > 300 µM (not active) in each case.

In the case of `COc1ccc(/C=C2/SC(=S)N(CCCC(=O)Nc3ccc(O)cc3)C2=O)cc1OC`, the IC50 in assay [1] is 25.2 µM (active); in assay [2] it was > 100 µM (inactive); in assay [6] it was > 80 µM (inactive); in [3], 31.8 µM (active).

`CN(C)c1ccc(C(=O)/C=C/c2ccccc2)cc1`: the IC50 was 5.32 µM (active) in assay [7]; 11.6 µM (active) in assay [8]; 14.3 µM (active) in assay [10]; 8.33 µM (active) in assay [11]; > 100 µM (inactive) in [13]. Also, the EC50 in [9] and in [12] was > 99 µM (inactive) each time.

As for `O=C(NCc1ccccc1)C(c1ccc(-c2ccccc2)cc1)n1c(=O)c(-c2ccco2)nc2ccccc21` (stereo not given), the IC50 in assay [14] is 3.34 µM (active).

For `CCCCn1c(/N=C/c2ccc(N(C)C)cc2)nc2ccccc21`, the IC50 in [1] is 5.14 µM (active); in [2] it was > 100 µM (inactive); in [3], 7.12 µM (active).

With `CC(=O)OCC1=C(C(=O)O)N2C(=O)C(NC(=O)CCn3nc(C(F)(F)F)c(Br)c3C3CC3)C2SC1` (stereo not given), the figures for the IC50 in assay [14] and in assay [15] were 17.7 µM (inactive) and 54.8 µM (active), respectively.
